According to patent EP0857721A1, “ACRIDONE COMPOUNDS” (Eisai Co., Ltd., priority 1995, dated 1997):

Test system: RBL-2H3 cells
Test: Inhibition of serotonin liberation from IgE-sensitized, antigen-stimulated RBL-2H3 cells ([3H]-serotonin)
Type: cell-based
Conditions: Rattus norvegicus; IgE-sensitized RBL-2H3 cells stimulated with specific antigen; [3H]-labeled serotonin
Description: Under the action of an antigen specific to the IgE antibody, RBL-2H3 cells, i.e., a cell line originating in rat cells, not only liberate histamine and serotonin but also produce and liberate cytokines such as TNF" serving as an inflammatory mediator and prostaglandins. In this experimental system, the effects of the compounds of the present invention of inhibiting the liberation of various mediators were examined by using serotonin as an indication.
The cells were labeled with [^3H]-labeled serotonin and, at the same time, sensitized with the IgE antibody. Next, these cells were incubated in the presence of the acridone compounds according to the present invention and then stimulated with the specific antigen. Then the serotonin liberation inhibitory activity of each acridone compound was calculated from the amount of the [^3H]-labeled serotonin thus liberated into the medium due to the above-mentioned stimulation and the amount of the [^3H]-labeled serotonin liberated into the medium by the same experimental procedure as the one described above but adding no acridone compound of the present invention.

SMILES | IC50
Cc1ccc2c(=O)c3c(CCC(=O)O)cccc3n(CCCNCc3ccccc3)c2c1C [Compound 5] | 3 µM
Cc1ccc2c(=O)c3c(C(C)CC(=O)O)cccc3n(CCCNCc3ccccc3)c2c1C (stereo not shown) [Compound 8] | 8 µM
Cc1ccc2c(=O)c3c(C(C)CC(=O)O)cccc3n(CCCNCc3ccc(Cl)cc3Cl)c2c1C (stereo not shown) [Compound 9] | 10 µM
Cc1ccc2c(=O)c3c(CC(=O)O)cccc3n(CCCNCc3cc4ccccc4o3)c2c1C [Compound 11] | 0.5 µM
Cc1ccc2c(=O)c3c(CC(=O)O)cccc3n(CCCNCc3ccco3)c2c1C [Compound 12] | 0.5 µM
Cc1ccc2c(=O)c3c(CC(=O)O)cccc3n(CCCN)c2c1C [Compound 14] | 10 µM
Cc1ccc2c(=O)c3c(C(C)CC(=O)O)cccc3n(CCCN)c2c1C (stereo not shown) [Compound 18] | 10 µM
CCOC(=O)Cc1cccc2c1c(=O)c1ccc(C)c(C)c1n2CCCNCc1ccccc1 [Compound 21] | 8 µM
COC(=O)CCc1cccc2c1c(=O)c1ccc(C)c(C)c1n2CCCNCc1ccccc1 [Compound 22] | 3 µM
Cc1ccc2c(=O)c3c(CC(=O)O)cccc3n(CCCNCc3ccc(Cl)c(Cl)c3O)c2c1C [Compound 23] | 8 µM
Cc1ccc2c(=O)c3c(CC(=O)O)cccc3n(CCCNCc3ccc(Cl)c(O)c3Cl)c2c1C [Compound 24] | 8 µM
Cc1ccc2c(=O)c3c(CC(=O)O)cccc3n(CCCN(C)Cc3ccc(Cl)c(O)c3Cl)c2c1C [Compound 25] | 6 µM
Cc1ccc(CNCCCn2c3cccc(CC(=O)O)c3c(=O)c3ccc(C)c(C)c32)c(C)c1 [Compound 26] | 10 µM
Cc1ccc(CN(C)CCCn2c3cccc(CC(=O)O)c3c(=O)c3ccc(C)c(C)c32)c(C)c1 [Compound 27] | 10 µM
Cc1ccc2c(=O)c3c(CC(=O)O)cccc3n(CCCNCc3ccc(C(F)(F)F)cc3C(F)(F)F)c2c1C [Compound 29] | 8 µM
Cc1ccc2c(=O)c3c(CC(=O)O)cccc3n(CCCNCc3ccc(Cl)cc3O)c2c1C [Compound 30] | 2 µM
Cc1ccc2c(=O)c3c(CC(=O)O)cccc3n(CCCNCc3ccc(O)cc3)c2c1C [Compound 31] | 1 µM
Cc1ccccc1CNCCCn1c2ccccc2c(=O)c2ccc(C)c(C)c21 [Compound 32] | 1 µM
Cc1cccc(CNCCCn2c3ccccc3c(=O)c3ccc(C)c(C)c32)c1 [Compound 33] | 2 µM
Cc1ccc2c(=O)c3ccccc3n(CCCNCc3cccc(C#N)c3)c2c1C [Compound 35] | 3 µM
Cc1ccc2c(=O)c3ccccc3n(CCCNCc3ccc(C#N)cc3)c2c1C [Compound 36] | 2 µM
Cc1ccc2c(=O)c3ccccc3n(CCCNCc3cccc(C(F)(F)F)c3)c2c1C [Compound 38] | 2 µM
Cc1ccc2c(=O)c3ccccc3n(CCCNCc3ccccc3F)c2c1C [Compound 41] | 3 µM
Cc1ccc2c(=O)c3ccccc3n(CCCNCc3cccc(F)c3)c2c1C [Compound 42] | 2 µM
Cc1ccc2c(=O)c3ccccc3n(CCCNCc3ccc(F)cc3)c2c1C [Compound 43] | 2 µM
Cc1ccc2c(=O)c3ccccc3n(CCCNCc3ccccc3Br)c2c1C [Compound 44] | 5 µM
Cc1ccc2c(=O)c3ccccc3n(CCCNCc3cccc(Br)c3)c2c1C [Compound 45] | 2 µM

SMILES | IC50
Cc1cc(CNCCCn2c3ccccc3c(=O)c3ccc(C)c(C)c32)ccc1O [Compound 46] | 4 µM
Cc1cc(CNCCCn2c3ccccc3c(=O)c3ccc(C)c(C)c32)cc(C)c1O [Compound 47] | 7 µM
Cc1ccc2c(=O)c3ccccc3n(CCCNCc3c(Cl)cccc3Cl)c2c1C [Compound 48] | 1 µM
COC(=O)c1ccc(CNCCCn2c3ccccc3c(=O)c3ccc(C)c(C)c32)cc1 [Compound 50] | 4 µM
Cc1ccc2c(=O)c3ccccc3n(CCCNCc3ccc(C(N)=O)cc3)c2c1C [Compound 55] | 10 µM
Cc1ccc2c(=O)c3ccccc3n(CCCNCc3cccc(C(=O)O)c3)c2c1C [Compound 56] | 7 µM
Cc1ccc2c(=O)c3ccccc3n(CCCNCc3ccccc3C(F)(F)F)c2c1C [Compound 61] | 1 µM
Cc1ccc(CNCCCn2c3ccccc3c(=O)c3ccc(C)c(C)c32)cc1 [Compound 62] | 1 µM
Cc1ccc2c(=O)c3ccccc3n(CCCNCc3ccccc3Cl)c2c1C [Compound 63] | 10 µM
Cc1ccc2c(=O)c3ccccc3n(CCCNCc3cccc(Cl)c3)c2c1C [Compound 64] | 5 µM
Cc1ccc2c(=O)c3ccccc3n(CCCNCc3ccc(Br)cc3)c2c1C [Compound 66] | 5 µM
Cc1ccc2c(=O)c3ccccc3n(CCCNCc3ccc(Cl)cc3Cl)c2c1C [Compound 67] | 1 µM
CNS(=O)(=O)c1ccc(CNCCCn2c3ccccc3c(=O)c3ccc(C)c(C)c32)cc1 [Compound 69] | 7 µM
Cc1ccc2c(=O)c3ccccc3n(CCCNCc3ccc(S(=O)(=O)N(C)C)cc3)c2c1C [Compound 70] | 8 µM
Cc1ccc2c(=O)c3ccccc3n(CCCNOCc3ccccc3)c2c1C [Compound 72] | 2 µM
Cc1ccc2c(=O)c3ccccc3n(CCCN(CCC#N)Cc3ccccc3)c2c1C [Compound 75] | 3 µM
Cc1ccc2c(=O)c3ccccc3n(CCCN(CCC(N)=O)Cc3ccccc3)c2c1C [Compound 76] | 4 µM
Cc1ccc2c(=O)c3ccccc3n(CCCN(CCO)Cc3ccccc3)c2c1C [Compound 77] | 1 µM
Cc1cc(CN(C)CCCn2c3ccccc3c(=O)c3ccc(C)c(C)c32)cc(C)c1O [Compound 79] | 7 µM
Cc1ccc2c(=O)c3ccccc3n(CCCNc3cccc(-c4nnn[nH]4)c3)c2c1C [Compound 80] | 11 µM
COc1cccc(NCCCn2c3ccccc3c(=O)c3ccc(C)c(C)c32)c1 [Compound 81] | 10 µM
Cc1ccc2c(=O)c3ccccc3n(CCCN(C3CCCCC3)C3CCCCC3)c2c1C [Compound 83] | 5 µM
Cc1ccc(CNCCCn2c3cc(F)ccc3c(=O)c3ccc(C)c(C)c32)cc1 [Compound 86] | 3 µM
COc1ccc2c(=O)c3ccc(C)c(C)c3n(CCCNCc3ccc(C)cc3)c2c1 [Compound 87] | 2 µM
COc1cccc2c1c(=O)c1ccc(C)c(C)c1n2CCCNCc1ccc(C)cc1 [Compound 88] | 2 µM
CCN(CCCn1c2cccc(CC(=O)O)c2c(=O)c2ccc(C)c(C)c21)Cc1ccccc1 [Compound 91] | 8 µM
Cc1ccc(CN(C)CCCn2c3cccc(CC(=O)O)c3c(=O)c3ccc(C)c(C)c32)cc1 [Compound 95] | 10 µM

SMILES | IC50
Cc1ccc2c(=O)c3c(CC(=O)O)cccc3n(CCCN(C)Cc3cccc4ccccc34)c2c1C [Compound 97] | 10 µM
COc1ccc(CNCCCn2c3cccc(CC(=O)O)c3c(=O)c3ccc(C)c(C)c32)c(OC)c1 [Compound 99] | 10 µM
Cc1ccc2c(=O)c3c(CC(=O)O)cccc3n(CCCNCc3ccc(F)cc3F)c2c1C [Compound 100] | 10 µM
Cc1ccc2c(=O)c3c(CC(=O)O)cccc3n(CCCNCc3ccc(F)c(F)c3)c2c1C [Compound 103] | 3 µM
Cc1ccc2c(=O)c3c(CC(=O)O)cccc3n(CCCNCc3ccc(F)cc3)c2c1C [Compound 104] | 5 µM
Cc1ccc2c(=O)c3c(CC(=O)O)cccc3n(CCCNCc3ccccc3Cl)c2c1C [Compound 105] | 5 µM
Cc1ccc2c(=O)c3c(CC(=O)O)cccc3n(CCCNCc3cccc(Cl)c3)c2c1C [Compound 106] | 10 µM
Cc1ccc2c(=O)c3c(CC(=O)O)cccc3n(CCCNCc3ccccc3F)c2c1C [Compound 107] | 6 µM
Cc1ccc2c(=O)c3c(CC(=O)O)cccc3n(CCCNCc3cccc(F)c3)c2c1C [Compound 108] | 5 µM
Cc1ccc2c(=O)c3c(CC(=O)O)cccc3n(CCCN(CCO)Cc3ccccc3)c2c1C [Compound 109] | 3 µM
Cc1ccc2c(=O)c3c(CC(=O)O)cccc3n(CCCN(C)CCc3ccccc3)c2c1C [Compound 113] | 8 µM
Cc1ccc2c(=O)c3c(CC(=O)O)cccc3n(CCCNCc3ccccc3C(F)(F)F)c2c1C [Compound 116] | 3 µM
Cc1ccc2c(=O)c3ccccc3n(Cc3ccccc3CN)c2c1C [Compound 117] | 10 µM
Cc1ccc2c(=O)c3ccccc3n(Cc3ccc(CN)cc3)c2c1C [Compound 119] | 4 µM
Cc1ccc2c(=O)c3ccccc3n(Cc3cccc(CN)n3)c2c1C [Compound 120] | 8 µM
Cc1ccc2c(=O)c3ccccc3n(Cc3ccc(CNCc4ccco4)cc3)c2c1C [Compound 125] | 10 µM
Cc1ccc2c(=O)c3ccccc3n(Cc3ccc(CNCc4ncc[nH]4)cc3)c2c1C [Compound 126] | 10 µM
Cc1ccc2c(=O)c3ccccc3n(Cc3ccccc3CNCc3ncc[nH]3)c2c1C [Compound 127] | 5 µM
Cc1ccc2c(=O)c3ccccc3n(Cc3cccc(CNCc4ccccc4)n3)c2c1C [Compound 128] | 1 µM
Cc1ccc2c(=O)c3ccccc3n(CC=CCNCc3ccccc3)c2c1C [Compound 129] | 8 µM
Cc1ccc2c(=S)c3ccccc3n(CCCN)c2c1C [Compound 130] | 10 µM
Cc1ccc2c(=S)c3ccccc3n(CCCNCc3ccccc3)c2c1C [Compound 131] | 10 µM
Cc1ccc2c(=O)c3ccccc3n(Cc3ccc(CNCc4ccccc4)o3)c2c1C [Compound 133] | 2 µM
Cc1ccc2c(=O)c3c(CC(=O)N(C)C)cccc3n(CCCN(C)Cc3ccccc3)c2c1C [Compound 136] | 10 µM
Cc1ccc2c(=O)c3c(C(C)C(=O)O)cccc3n(CCCN(C)Cc3ccccc3)c2c1C (stereo not shown) [Compound 140] | 4 µM
